The results in this text go back to patent publication US20220389000A1, “PESTICIDALLY ACTIVE CYCLIC AMINE COMPOUNDS” (SYNGENTA CROP PROTECTION AG, priority 2019, published 2022).

The test system of test [1] is Tetranychus urticae (Two-Spotted Spider Mite). Description: Example B4: Tetranychus urticae (two-spotted spider mite), feeding/contact activity, sprayed bean leaf discs. The format is in vivo. The conditions noted are these: foliar, 192 h, application rate 200 ppm, mixed population (mobile stages) on sprayed bean leaf discs, 8 days after infestation. As for the experimental part: Example B4: Tetranychus urticae (Two-Spotted Spider Mite): Feeding/Contact Activity
Bean leaf discs on agar in 24-well microtiter plates were sprayed with aqueous test solutions prepared from 10'000 ppm DMSO stock solutions. After drying the leaf discs were infested with a mite population of mixed ages. The samples were assessed for mortality on mixed population (mobile stages) 8 days after infestation.

The test system of test [2] is Plutella xylostella (Diamond Back Moth). As to the kind of experiment: Example B3: Plutella xylostella (diamond back moth), treated artificial diet, eggs. The format is in vivo. The conditions noted are these: 192 h, application rate 200 ppm, eggs on treated artificial diet, 8 days after infestation, vs untreated, read-out: effect in at least one of the two categories (mortality or growth inhibition). As for the experimental part:
Example B3: Plutella xylostella (Diamond Back Moth)
24-well microtiter plates with artificial diet were treated with aqueous test solutions prepared from 10'000 ppm DMSO stock solutions by pipetting. After drying, Plutella eggs were pipetted through a plastic stencil onto a gel blotting paper and the plate was closed with it. The samples were assessed for mortality and growth inhibition in comparison to untreated samples 8 days after infestation.
The following compounds gave an effect of at least 80% in at least one of the two categories (mortality or growth inhibition) at an application rate of 200 ppm: […]

As usually defined, the mortality is the share of the test organisms that died. The molecule `Cc1nc(C2CCN(C(=O)c3cc(C#N)c(OCc4ccc(C(F)(F)F)cc4)nc3C(F)F)CC2)no1` [P1.48, 6-(Difluoromethyl)-5-[4-(5-methyl-1,2,4-oxadiazol-3-yl)piperidine-1-carbonyl]-2-[[4-(trifluoromethyl)phenyl]methoxy]pyridine-3-carbonitrile] came in with a mortality at 200 ppm in test [1] of at least 80%. Consider `CC[S+]([O-])CC1CCN(C(=O)c2cc(C#N)c(OCc3ccc(C(F)(F)F)cc3)nc2C(F)(F)F)CC1` (stereo not drawn) [P3.4, 5-[4-(Ethylsulfinylmethyl)piperidine-1-carbonyl]-6-(trifluoromethyl)-2-[[4-(trifluoromethyl)phenyl]methoxy]pyridine-3-carbonitrile], for which the mortality at 200 ppm in test [1] is at least 80%. Turning to `Cc1nc(C2CCN(C(=O)c3cc(C#N)c(OCc4ccc(C(F)(F)F)cc4)nc3C(F)(F)F)CC2)no1` [P1.1, 5-[4-(5-Methyl-1,2,4-oxadiazol-3-yl)piperidine-1-carbonyl]-6-(trifluoromethyl)-2-[[4-(trifluoromethyl)phenyl]methoxy]pyridine-3-carbonitrile], the mortality at 200 ppm in test [1] was at least 80%. `Cc1nc(C2CCN(C(=O)c3cc(C#N)c(OCC4CC4(Cl)Cl)nc3C(F)(F)F)CC2)no1` (stereo not drawn) [P4.1, 2-[(2,2-Dichlorocyclopropyl)methoxy]-5-[4-(5-methyl-1,2,4-oxadiazol-3-yl)piperidine-1-carbonyl]-6-(trifluoromethyl)pyridine-3-carbonitrile] displayed a mortality at 200 ppm in test [1] of at least 80%. In test [2], the effect (mortality or growth inhibition) at 200 ppm is at least 80%.

In the case of `N#Cc1cc(C(=O)N2CCN(c3ncc(Cl)cc3Cl)CC2)c(C(F)(F)F)nc1OCc1ccc(C(F)(F)F)cc1` [P2.1, 5-[4-(3,5-dichloro-2-pyridyl)piperazine-1-carbonyl]-6-(trifluoromethyl)-2-[[4-(trifluoromethyl)phenyl]methoxy]pyridine-3-carbonitrile], the mortality at 200 ppm in test [1] is at least 80%. In test [2], the effect (mortality or growth inhibition) at 200 ppm was at least 80%. For `Cc1nc(C2CCN(C(=O)c3cc(C#N)c(OCc4ccc(C(F)(F)F)cc4)nc3C)CC2)no1` [P1.43, 6-Methyl-5-[4-(5-methyl-1,2,4-oxadiazol-3-yl)piperidine-1-carbonyl]-2-[[4-(trifluoromethyl)phenyl]methoxy]pyridine-3-carbonitrile], the mortality at 200 ppm in test [1] was at least 80%. On the same count and under the same terms, the result for `Cc1nc(C2CCN(C(=O)c3cc(C(N)=S)c(OCc4ccc(C(F)(F)F)cc4)nc3C(F)(F)F)CC2)no1` [P6.1, 5-[4-(5-Methyl-1,2,4-oxadiazol-3-yl)piperidine-1-carbonyl]-6-(trifluoromethyl)-2-[[4-(trifluoromethyl)phenyl]methoxy]pyridine-3-carbothioamide] reads at least 80%.
